Test results published in patent US20220264883A1, “IMIDAZOTHIAZOLE COMPOUNDS AND METHODS FOR TREATING PLANT NEMATODE INFECTIONS” (The Governing Council of the University of Toronto, priority 2019, published 2022).
“And” between values parts separate entries of the source, which are not always exact repeats. Equal values may be shown once.

What was measured:
[1] = test system: M. chitwoodi; assay: Meloidogyne chitwoodi infectivity assays (tomato roots in soil); format: in vivo; settings: 45 μM in soil, 8 weeks, egg counts relative to DMSO control
Protocol: An M. incognita population originally collected from grape (Vitis vinifera) in Parlier, Calif., was used for all experiments, and they were maintained on tomato plants (Solanum lycopersicum ‘Rutgers’) as previously described^73. Infective J2 juveniles were collected as described in^73. For the infectivity assays, 90 grams of soil (1:1 sand:loam mix) was added to each cell of several 6-cell plastic garden packs. The soil was drenched with 18 mL of deionized water containing dissolved chemical or DMSO alone. 2,500 infective J2 juveniles were then added to the soil in 2 mL of deionized water, for a total water volume of 20 mL. The final concentration of the chemicals in water was 45 μM. The DMSO concentration varied from 0.1% to 0.8% (v/v) depending on the stock concentration of the chemical. The highest DMSO concentration was used as the DMSO control. The J2s were incubated in the soil and chemical for 24 hours, after which two- to three-week old tomato seedlings were transplanted into the soil (one plant per cell). […] The number of eggs from each plant root was counted on a dissection microscope using a haemocytometer, and the number of eggs per milligram of root was calculated by dividing the total egg number by the mass of the dried root material. […] An average percent effectiveness value was then calculated across the two different batches carried out on different days. […]

[2] = test system: C. elegans; assay: C. elegans minimum lethal concentration dose-response; format: in vivo, Caenorhabditis elegans; settings: Caenorhabditis elegans, C. elegans viability
Protocol: (§1) Forty microliters of an HB101 bacterial suspension in liquid NGM (see above) was added to each well of a 96-well flat-bottom culture plate, after which approximately 25 synchronized L1 worms, in 10 μl of M9 buffer (see ref. 59 for the recipe), were added to each well. The synchronized L1 worms were obtained from an embryo preparation performed the previous day (see ref. 59 for the protocol). For the L1 assays, 0.5 μl of chemical solution (or DMSO alone) was immediately added to the wells using a multichannel pipette, the final DMSO concentration is 1% (v/v). The worms were incubated for 3 days at 20° C. and the number of viable animals was counted. […] Although the counts were performed after 3 days of incubation in the chemical, it was noted that the L1s were dead within 24 hours of the addition of the chemicals. For the L2/L3 assays, the worms were incubated in the absence of chemical for 1 day at 20° C. until they reached the L2/L3 stage, at which point chemical was added as described above. The worms were then allowed to incubate for 2 days at 20° C. and the number of viable animals was counted as described for the L1 assay. For the L4 assays, the worms were incubated for 2 days at 20° C. before the addition of chemicals. The L4-stage worms were then incubated in chemical for an additional day before quantifying the number of viable animals. The adult assays were performed the same way as the L4 assays, however HT115 E. coli carrying the empty dsRNA expressing vector L4440 was used in place of HB101 and the worms were cultured at 25° C. as opposed to 20° C. for the entirety of the experiment. The HT115 suspension was made by concentrating a bacterial culture, with an OD600 of ˜ 0.8, five-fold with liquid NGM containing 1 mM IPTG and 100 μg/ml carbenicillin. The HT115 cells were induced with 1 mM IPTG for one hour before concentrating with NGM.
Compounds Ia to Im, dose-response assays were performed with C. elegans. 8 of the compounds killed C. elegans with minimum lethal concentrations less than or equal to 100 μM (Table 6). Compounds Ia, Ic, and Ij were the most potently lethal nematicides in this assay, having minimum lethal concentrations of 6.25 μM and below. The positive control nematicide tioxazafen killed nematodes at 3.13 μM and above.

[3] = test system: C. elegans; assay: C. elegans viability at a single concentration (Table 3); format: in vivo; settings: Caenorhabditis elegans; 50 μM (compound If)
Protocol: as §1
(§2) The ability of exemplary compounds of the application to kill C. elegans at 100 μM (except for compound If which was tested at 50 μM) and to affect the mobility of M. chitwoodi at 45 μM was tested as described above for M. incognita infective juveniles. Percent mobility was measured after 2 days of chronic exposure to test compounds (Table 3).

[4] = test system: tomato plants; assay: Root mass of tomato plants in the infectivity assays; format: in vivo, Solanum lycopersicum; settings: 45 μM
Protocol: An M. incognita population originally collected from grape (Vitis vinifera) in Parlier, Calif., was used for all experiments, and they were maintained on tomato plants (Solanum lycopersicum ‘Rutgers’) as previously described^73. Infective J2 juveniles were collected as described in^73. For the infectivity assays, 90 grams of soil (1:1 sand:loam mix) was added to each cell of several 6-cell plastic garden packs. The soil was drenched with 18 mL of deionized water containing dissolved chemical or DMSO alone. 2,500 infective J2 juveniles were then added to the soil in 2 mL of deionized water, for a total water volume of 20 mL. The final concentration of the chemicals in water was 45 μM. The DMSO concentration varied from 0.1% to 0.8% (v/v) depending on the stock concentration of the chemical. The highest DMSO concentration was used as the DMSO control. The J2s were incubated in the soil and chemical for 24 hours, after which two- to three-week old tomato seedlings were transplanted into the soil (one plant per cell). Two replicates were performed for each chemical treatment, and four replicates were done for the DMSO controls. The whole experiment was replicated twice, in two different batches on two different days, for a total of four replicates for each chemical treatment, and eight replicates for the DMSO controls. Inoculated plants were grown for 8 weeks in a greenhouse, as described^73, under long-day conditions (16-h photoperiod) with 26/18° C. day/night temperatures. After 8 weeks, the plants were destructively harvested. The tops were removed and discarded, and roots were gently washed with water to remove adhering soil. Eggs were extracted by placing rinsed roots in 0.6% sodium hypochlorite and agitating at 300 rpm for 3 min. Roots were then rinsed over nested 250- and 25.4-μm sieves, with eggs collected from the latter and suspended in water. Roots were dried in a 65° C. oven for at least 24 hours, after which dry roots were weighed. The number of eggs from each plant root was counted on a dissection microscope using a haemocytometer, and the number of eggs per milligram of root was calculated by dividing the total egg number by the mass of the dried root material. An average was taken across the replicates performed on the same day, and then normalized to the DMSO control average. To calculate percent effectiveness at inhibiting reproduction, the normalized values were subtracted from 1, and then multiplied by 100. An average percent effectiveness value was then calculated across the two different batches carried out on different days.

[5] = test system: M. chitwoodi; assay: Root-knot nematode M. chitwoodi mobility (Table 3); format: in vivo, Meloidogyne chitwoodi; settings: 45 μM, 2 days of chronic exposure
Protocol: (§3) M. incognita (Kofoid & White) Chitwood Race 1 (originally isolated in Maryland) was used for all experiments, and was maintained on pepper (Capsicum annuum L.) cv. PA-136 in a greenhouse as previously described^64. Infective J2 juveniles were collected as described in ref.65. The microwell dose-response experiments were carried out similarly to previously described protocols^64, 66. In brief, 100 J2s, in 10 μL of deionized water, were added to the wells of 96-well polystyrene plates, after which 190 μL of deionized water containing dissolved chemical, or DMSO alone, was added to each well. The chemicals were tested at 45 μM, and the final concentration of DMSO in each well was 0.5% (v/v). The wells were covered with a plastic adhesive strip, and the lids of the plates were sealed with parafilm. The plates were incubated at 25° C. The mobile fraction of worms was quantified by counting the number of mobile and immobile worms after 2 days of incubation, and then dividing the number of mobile worms by the total number of worms in the well. Three technical replicates were performed for each treatment, and an average value for the mobile fraction of worms was calculated across the three replicates. The percent effectiveness at inhibiting nematode movement was calculated by dividing the average value for the chemical treatment by the average value for the DMSO control, then subtracting this value from 1, and then multiplying by 100.
M. chitwoodi race 1 (the strain commonly found in the pacific northwest of the United States) was used for all experiments, and was maintained on tomato plants (Solanum lycopersicum ‘Rutgers’) as previously described^73. The M. chitwoodi in vitro assays were performed identically to the M. incognita in vitro assays (see above).
as §2

[6] = test system: M. incognita J2 larvae; assay: Meloidogyne incognita in vitro assays (J2 movement); format: in vivo; settings: 45 μM, 2 days, relative to DMSO control
Protocol: as §3

Cc1csc2nc(-c3ccc(Cl)cc3)cn12 [Compound If]
% effectiveness at inhibiting reproduction of M. chitwoodi [1]: 46.2% | minimal effective concentration [2]: 25 µM and 6.2 µg/mL | viability at 50 µM [3]: 19.8% | Normalized root mass (relative to DMSO control) [4]: 1.3 | RKN mobility [5]: 0.6% | % effectiveness at reducing M. incognita movement [6]: 3.5%
